# Key:
# human IDO1 = molecular target: T1, human IDO1 (Homo sapiens, UniProt P14902); test: IDO inhibition assay in HEK293 cells stably expressing human IDO1 (kynurenine, Ehrlich reagent, absorbance 490 nm); format: cell-based; conditions: 20 hours incubation, read-out: IDO1 HEK Human IC50
# T1 construct: expressed in transfected cells
# Experimental: HEK293 cells were transfected with a pCDNA-based mammalian expression vector harboring human IDO1 cDNA (NM 002164.2) by electroporation. They were cultured in medium (DMEM with 10% FBS) containing 1 mg/ml G418 for two weeks. Clones of HEK293 cells that stably expressed human IDO1 protein were selected and expanded for IDO inhibition assay. The human IDO1/HEK293 cells were seeded at 10,000 cells per 50 μL per well with RPMI/phenol red free media contains 10% FBS in a 384-well black wall clear bottom tissue culture plate (Matrix Technologies LLC) 100 nL of certain concentration of compound was then added to each well using ECHO liquid handling systems. The cells were incubated for 20 hours in 37° C. incubator with 5% CO2. The compound treatments were stopped by adding trichloroacetic acid (Sigma-Aldrich) to a final concentration at 0.2%. The cell plate was further incubated at 50° C. for 30 minute. The equal volume supernatant ([…]) and 0.2% (w/v) Ehrlich reagent (4-dimethylaminobenzaldehyde, Sigma-Aldrich) in glacial acetic acid were mixed in a new clear bottom 384-well plate. This plate was then incubated at room temperature for 30 minute. The absorbance at 490 nm was measured on Envision plate reader. Compound IC50 values were calculated using the counts of 500 nM of a reference standard treatment as one hundred percent inhibition, and counts of no compound but DMSO treatment as zero percent inhibition.
# [1] = molecular target: T2, indoleamine 2,3-dioxygenase (IDO) (Homo sapiens, UniProt P14902); test: HeLa cell-based indoleamine 2,3-dioxygenase (IDO) assay (IFNγ-induced kynurenine production, absorbance 480 nm); conditions: HeLa cells, IFNγ 25 ng/mL, 48 hour incubation
# T2 construct: host or cells: HeLa cells treated with IFNγ (25 ng/mL)
# T2 sequence (P14902 whole entry): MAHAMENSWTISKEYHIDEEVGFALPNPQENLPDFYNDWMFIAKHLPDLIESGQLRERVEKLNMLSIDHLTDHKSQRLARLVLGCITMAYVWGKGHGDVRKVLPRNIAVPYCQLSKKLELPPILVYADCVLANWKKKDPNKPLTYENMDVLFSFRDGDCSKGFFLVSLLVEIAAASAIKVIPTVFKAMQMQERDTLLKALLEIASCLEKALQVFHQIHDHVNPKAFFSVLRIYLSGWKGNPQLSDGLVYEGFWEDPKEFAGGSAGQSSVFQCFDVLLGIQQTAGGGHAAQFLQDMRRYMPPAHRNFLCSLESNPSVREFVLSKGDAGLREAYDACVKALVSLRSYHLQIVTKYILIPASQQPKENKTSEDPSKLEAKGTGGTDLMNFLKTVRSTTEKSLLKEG
# Experimental: Assessment of inhibitor activity in HeLa cell-based indoleamine 2,3-dioxygenase (IDO) assay:
# HeLa (ATCC® CCL-2) cells were obtained from the ATCC® and cultured in Dulbecco's Modified Eagle Medium supplemented with 4.5 g/L glucose, […] L-glutamine and […] (#10-013-CV, Corning), 2 mM L-alanyl-L-glutamine dipeptide (#35050-061, Gibco), 100U/mL penicillin, 100 μg/mL stroptomycin (#SV30010. HyClone) and 10% fetal bovine serum (#SH30071.03 HyClone). Cells were maintained in a humidified incubator at 37° C. in 5% CO2.
# IDO activity was assessed as a function of kynurenine production as follows: HeLa cells were seeded in a 96-well culture plate at a density of 5,000 cells/well and allowed to equilibrate overnight. After 24 hours, the media was aspirated and replaced with media containing IFNγ (#285-IF/CF, R&D Systems) at a final concentration of 25 ng/mL. A serial dilution of each test compound was added to the cells in a total volume of 200 μL of culture medium. After a further 48 hour incubation, 170 μL of supernatant was transferred from each well to a fresh 96-well plate, 12.1 μL of 6.1N trichloroacetic acid (#T0699, Sigma-Aldrich) was added to each well and mixed, followed by incubation at 65° C. for 20 minutes to hydrolyze N-formylkynurenine, the product of indoleamine 2,3-dioxygenase, to kynurenine. The reaction mixture was then centrifuged for 10 mins at 500×g to sediment the precipitate. 100 μL of the supernatant was transferred from each well to a fresh 96-well plate. 100 μl of 2% (w/v) p-dimethylaminobenzaldehyde (#15647-7, Sigma-Aldrich) in acetic acid (#A6283, Sigma-Aldrich) was added to each well mixed and incubated at room temperature for 20 mins. Kynurenine concentrations were determined by measuring absorbance at 480 nm and calibrating against an L-kynurenine (#K8625, Sigma-Aldrich) standard curve using a SPECTRAMAX® M2e microplate reader (Molecular Devices). The percentage activity at each inhibitor concentration was determined and IC50 values assessed using nonlinear regression.
# T1 sequence (P14902 whole entry): as above
Structure (SMILES),IC50 (human IDO1) [nM],IC50 [1] [nM]
"C[C@@H](Nc1nnc(-c2ccc(C#N)cc2)[nH]1)[C@H]1CC[C@@H](c2ccnc3ccc(F)cc32)CC1 [Example 41, 4-(5-((R)-1-((1s,4S)-4-(6-Fluoroquinolin-4-yl)cyclohexyl)ethylamino)-4H-1,2,4-triazol-3-yl)benzonitrile]",23.1,390
"CC(C)Oc1ccc(-c2nnc([C@H](C)[C@H]3CC[C@@H](c4ccnc5ccc(F)cc54)CC3)[nH]2)cc1 [Example 12, 6-fluoro-4-((1S,4s)-4-((R)-1-(5-(4-isopropoxyphenyl)-4H-1,2,4-triazol-3-yl)ethyl)cyclohexyl)quinoline]",22.5,39
"C[C@@H](Nc1nnc(-c2ccc(C#N)cc2)o1)[C@H]1CC[C@@H](c2ccnc3ccc(F)cc32)CC1 [Example 29, 4-(5-((R)-1-((1s,4S)-4-(6-fluoroquinolin-4-yl)cyclohexyl)ethylamino)-1,3,4-oxadiazol-2-yl)benzonitrile]",23.5,55.3
"C[C@@H](c1nnc(-c2ccc(F)cc2)o1)[C@H]1CC[C@@H](c2ccnc3ccc(F)cc32)CC1 [Example 2, 2-(4-Fluorophenyl)-5-((R)-1-((1s,4s)-4-(6-fluoroquinolin-4-yl)cyclohexyl)ethyl)-1,3,4-oxadiazole]",39.2,34.8
"C[C@@H](c1ncc(-c2ccc(Cl)cc2)[nH]1)[C@H]1CC[C@@H](c2ccnc3ccc(F)cc32)CC1 [Example 44, 4-((1s,4s)-4-((R)-1-(5-(4-Chlorophenyl)-1H-imidazol-2-yl)ethyl)cyclohexyl)-6-fluoroquinoline]",12.4,10.5
"C[C@@H](c1nnc(-c2ccc(Cl)cc2)s1)[C@H]1CC[C@@H](c2ccnc3ccc(F)cc32)CC1 [Example 5, 2-(4-Chlorophenyl)-5-((R)-1-((1s,4S)-4-(6-fluoroquinolin-4-yl)cyclohexyl)ethyl)-1,3,4-thiadiazole]",15.1,35

# Second part, the compound after the results:
IC50 (human IDO1) [nM],IC50 [1] [nM],Structure (SMILES)
48.2,118,"C[C@@H](c1nnc(-c2ccccc2)[nH]1)[C@H]1CC[C@@H](c2ccnc3ccc(F)cc32)CC1 [Example 13, 6-fluoro-4-((1S,4s)-4-((R)-1-(5-phenyl-4H-1,2,4-triazol-3-yl)ethyl)cyclohexyl)quinoline]"
5.9,8.8,"C[C@@H](c1nnc(Nc2ccccc2)[nH]1)[C@H]1CC[C@@H](c2ccnc3ccc(F)cc32)CC1 [Example 22, 5-((R)-1-((1s,4s)-4-(6-Fluoroquinolin-4-yl)cyclohexyl)ethyl)-N-phenyl-4H-1,2,4-triazol-3-amine]"
47.5,14.8,"C[C@@H](c1nnc(-c2ccc(Cl)cc2)[nH]1)[C@H]1CC[C@@H](c2ccnc3ccc(F)cc32)CC1 [Example 1, 4-((1s,4s)-4-((R)-1-(5-(4-Chlorophenyl)-4H-1,2,4-triazol-3-yl)ethyl)cyclohexyl)-6-fluoroquinoline]"
13.8,5.5,"C[C@@H](c1nnc(-c2ccccc2)o1)[C@H]1CC[C@@H](c2ccnc3ccc(F)cc32)CC1 [Example 19, 2-((R)-1-((1s,4S)-4-(6-fluoroquinolin-4-yl)cyclohexyl)ethyl)-5-phenyl-1,3,4-oxadiazole]"
86,162,"C[C@@H](c1nnc(-c2ccc(F)c(Cl)c2)[nH]1)[C@H]1CC[C@@H](c2ccnc3ccc(F)cc32)CC1 [Example 11, 4-((1S,4s)-4-((R)-1-(5-(3-chloro-4-fluorophenyl)-4H-1,2,4-triazol-3-yl)ethyl)cyclohexyl)-6-fluoroquinoline]"
10.6,13.3,"Cc1cnc(-c2nnc(N[C@H](C)[C@H]3CC[C@@H](c4ccnc5ccc(F)cc54)CC3)o2)s1 [Example 30, N-((R)-1-((1s,4S)-4-(6-fluoroquinolin-4-yl)cyclohexyl)ethyl)-5-(5-methylthiazol-2-yl)-1,3,4 oxadiazol-2-amine]"
5.5,5.4,"C[C@@H](Nc1nnc(-c2ccc(Cl)cc2)s1)[C@H]1CC[C@@H](c2ccnc3ccc(F)cc32)CC1 [Example 24, 5-(4-Chlorophenyl)-N—((R)-1-((1s,4S)-4-(6-fluoroquinolin-4-yl)cyclohexyl)ethyl)-1,3,4-thiadiazol-2-amine]"
36.2,72.2,"C[C@@H](c1nnc(-c2cccc(F)c2)[nH]1)[C@H]1CC[C@@H](c2ccnc3ccc(F)cc32)CC1 [Example 14, 6-fluoro-4-((1S,4s)-4-((R)-1-(5-(3-fluorophenyl)-4H-1,2,4-triazol-3-yl)ethyl)cyclohexyl)quinoline]"

# From patent US11351164B2, “Inhibitors of indoleamine 2,3-dioxygenase and methods of their use” (BRISTOL-MYERS SQUIBB COMPANY, priority 2016, dated 2022)
